Laboratory results taken from patent US6344208B1, “Pheromone baits for social insects” (priority 1989, dated 2002).

Assays:
Assay type in all cases: in vivo
Atta sexdens [1] = assay: Field Trial 3: Mirex sachets with single pheromone component placed 1 metre from nest entrance on active trails; conditions: Trial 3, 50 μl component on rubber septum, components tested separately
Method: (§1) The insecticide bait Mirex was used in all the trials. In Trials 3 and 4 the bait was presented to the ants in black plastic sachets 8 cm^2 placed inside wire cages, which provided protection from cattle, horses, small manamals and birds. The empty cages were placed in the field 24 hours prior to the start of the experiment. The Mire sachets were prepared and a component of mandibular gland alarm pheromone of the ant species concerned was added to the treatment sachets. In Trial 5 the sachets were not placed in cages but were scattered randomly at the cutting site. Five components or the alarm pheromone were tested. Rubber septa, used to provide a slow-release substrate, were dosed with 50 μl of component and then sealed inside the Mirex sachets. Control sachets were sealed with untreated rubber septa. The sachets were transferred immediately to the field sites. The fate of the sachets was then monitored over a 3 day period.
Trial 3: Sachets were placed 1 metre from the nest entrance hole on active trials of A. sexdens. Five synthetic components of the alarm pheromone were tested, separately; citral, farnesol, 6-methyl-5-hepten-2-one, 4-methyl-3-heptanone and geraniol. […] The results for the five synthetic pheromones were pooled.

Atta sexdens [2] = assay: Field Trial 5: Mirex sachets with single pheromone component scattered randomly at cutting site; conditions: Trial 5, 50 μl component; for discovery and opening of sachets: sachets over about 10 m^2 where ants were cutting leaves
Method: as §1
Trial 5: Sachets containing, separately, citral (E), 4-methyl-3-heptanone H and 6-methyl-5-hepten-2-one (G) were distributed randomly over an area of about 10 m^2 where ants were actively cutting leaves.

Acromyrmex octospinosus = assay: Research and laboratory trials on behaviour induced by synthetic alarm pheromone components; conditions: research by the applicant
Description: Recent research by the applicant on the neotropical leaf-cutting ant Acromyrmex octospinosus has shown that […] components of the alarm pheromone of this ant, namely 3-octanol and 3-octanone, attract nestmates and induce the laying of trails around the source which ensure that nestmates are then attracted towards the source for some time and attack the source on arrival.
It is expected that this surprising effect will be shown by synthetic components of pheromones of other insects, especially social insects.
The synthetic pheromone compounds may therefore be used in food baits in contrast to what would be expected.

Compound	fate of test sachets (Atta sexdens [1])	time until all the bait had been transported back to the nest (Atta sexdens [2]) [min]	discovery and opening of sachets (Atta sexdens [2])	behaviour induced in nestmates by the alarm pheromone component (Acromyrmex octospinosus)
CC(C)=CCC/C(C)=C/CO [geraniol]	cut open and the contents transported into the nest	–	–	–
CCCC(C)C(=O)CC (centres unmarked) [4-methyl-3-heptanone]	cut open and the contents transported into the nest	≤ 30	discovered and opened immediately	–
CCCCCC(O)CC (centres unmarked) [3-octanol]	–	–	–	mainly controls attraction to the source, the laying of pheromone trails radiating out from the source, and biting
CCCCCC(=O)CC [3-octanone]	–	–	–	mainly causes recruitment of ants from the peripheral area
CC(C)=CCCC(C)=CCCC(C)=CCO [farnesol]	cut open and the contents transported into the nest	–	–	–
CC(=O)CCC=C(C)C [6-methyl-5-hepten-2-one]	cut open and the contents transported into the nest	–	discovered and opened immediately	–
CC(C)=CCCC(C)=CC=O [citral]	cut open and the contents transported into the nest	–	discovered and opened immediately	–
